Assays:
Assay type in all cases: cell-based
glioma cell lines = assay: Washout assay, all cell lines together; settings: all seven glioma cell lines of Table 5
Description: (§1) Seven glioma cell lines that can double at least once over three days were thawed and grown to 70-80% confluency before being used in the assay. On day 1, for each cell line, 2-3×10^5 cells were seeded into each well in 6-well cell culture plates and incubated at 37° C. overnight. […] The plates were incubated at 37° C. for 3 days.
(§2) On day 5, the compound was efficiently washed four times with culture medium supplemented with 20% fetal bovine serum (FBS) and then washed once in buffered saline solution (PBS). The cells were trypsinized. For each of the concentrations, compound-treated cell lines were plated into five 96-well plates at 5000 cells per well. For the next 4 consecutive days, one plate of the cells was taken out of the incubator and cell proliferation was measured by MTT ELISA assay.
(§3) The washout assay is designed to follow the cells' recovery from exposure to the compound. Each glioma cell line was assayed at least twice. The criteria for evaluating sensitivity or resistance was Last Growth Back Concentration (LGC), if LGC<=30 nM, the cell line is considered sensitive; if LGC>=1 uM, it is considered resistant; if LGC is in between these two concentrations, the cell line is considered intermediate. Based on criteria set, all the glioma cell lines appeared to be sensitive to the compound of Example 1.

[1] = test system: HFF (normal human foreskin fibroblasts); assay: Methylene blue growth inhibition assay; settings: Fibroblast, 72 h
Description: (§4) Generally, exponentially growing cell lines of different tumor origins, cultured in appropriate media containing 10% fetal bovine serum at 37° C. in a 5% CO2 incubator were plated at low density (less than 2000 cells/well) in 96-well plates. Twenty four hours post-plating, cells were treated with different concentrations of compound ranging from 10 uM to 0.04 nM. Several wells were left untreated as a control. Seventy two hours post-treatment, cell numbers were determined using 100 μl per well of methylene blue (Sigma M9140) (0.5% in 50:50 Ethanol:water). Stain was incubated at room temperature for 30 minutes before plates were rinsed and dye solubilized in 1% N-lauroyl sarcosine, sodium salt, (Sigma L5125, in PBS) (further details of a methylene blue assay are described below). Plates were read on a microplate reader, measuring the OD at 620 nm.
(§5) Concentration of test compound that inhibited 50% of cell growth (IC50) was determined by 4 parameter fit of data using XLfit, (value of no cell control was subtracted from all samples for background). The data are shown in Table 1 below and represent a compilation of several different experiments, each performed using the general parameters outlined above, although minor variations may have been employed in some instances.
(§6) In one assay, normal human foreskin fibroblasts (HFF), human colon (HCT116, RKO), lung (H460, A549) and breast (MCF7) tumor cell lines were cultured in high glucose DMEM (Life Technologies) containing 10% fetal bovine serum (FBS) at 37° C. in a humidified 5% CO2, 95% air incubator. Cells were harvested using trypsin/EDTA, counted using a haemocytometer, and plated in 100 μL of culture media per well, at the following densities, in a 96-well tissue culture plate (Falcon 3075): HFF 5,000 cells/well, HCT116 3,000 cells/well, RKO 2,500 cells/well, H460 2,500 cells/well, A549 5,000 cells/well, MCF7 4,000 cells/well. The next day, compound was diluted in low glucose DMEM containing 100 μg/mL gentamicin, at twice the final required concentration, from 10 mM stock solutions in DMSO. 100 μL/well of these dilutions were added to the 100 μL of media currently in the assay plates. Medium containing 0.6% DMSO was added to control wells. The final concentration of DMSO in all wells was 0.3%. Cells were incubated at 37° C., 5% CO2 for 72 h. Medium was removed by aspiration. Cell biomass was estimated by staining cells with 80 μL per well methylene blue (Sigma M9140, 0.5% in 50:50 ethanol:water), and incubation at room temperature for 30-60 min. Stain was removed by aspiration and the plates rinsed by immersion in water, then air-dried. To release stain from the cells, 100 μL of solubilization solution was added (1% N-lauroyl sarcosine, Sodium salt, Sigma L5125, in PBS), and plates were shaken gently for about 30 min. Optical density at 620 nm was measured on a microplate reader. Percent inhibition of cell growth was calculated relative to vehicle treated control wells. Concentration of compound that inhibits 50% of cell growth (IC50) was interpolated using nonlinear regression (Levenberg-Marquardt) and the equation, y=Vmax*(1−(x/(K+x)))+Y2, where “K” was equal to the IC50.

MCF7 = assay: Methylene blue growth inhibition assay; settings: Homo sapiens, 72 h
Description: as §4, §5, §6

HCT116 = assay: Methylene blue growth inhibition assay; settings: Homo sapiens, HCT-116, 72 h
Description: as §4, §5, §6

RKO = assay: Methylene blue growth inhibition assay; settings: Homo sapiens, 72 h
Description: as §4, §5, §6

H460 = assay: Methylene blue growth inhibition assay; settings: Homo sapiens, NCI-H460, 72 h
Description: as §4, §5, §6

A549 = assay: Methylene blue growth inhibition assay; settings: Homo sapiens, 72 h
Description: as §4, §5, §6

SW1088 = assay: Washout assay, recovery of cell growth (MTT); settings: SW1088, astrocytoma; 3 days exposure then washout
Description: as §1, §2, §3

A172 = assay: Washout assay, recovery of cell growth (MTT); settings: A172, glioblastoma; 3 days exposure then washout
Description: as §1, §2, §3

SNB-19 = assay: Washout assay, recovery of cell growth (MTT); settings: SNB-19, glioblastoma; 3 days exposure then washout
Description: as §1, §2, §3

H4 = assay: Washout assay, recovery of cell growth (MTT); settings: H4, glioma; 3 days exposure then washout
Description: as §1, §2, §3

SF-268 = assay: Washout assay, recovery of cell growth (MTT); settings: SF-268, glioblastoma; 3 days exposure then washout
Description: as §1, §2, §3

SF-539 = assay: Washout assay, recovery of cell growth (MTT); settings: SF-539, astrocytoma; 3 days exposure then washout
Description: as §1, §2, §3

SF-295 = assay: Washout assay, recovery of cell growth (MTT); settings: SF-295, glioblastoma; 3 days exposure then washout
Description: as §1, §2, §3

IC50 (MCF7): < 100 nM
IC50 (HCT116): < 100 nM
IC50 (H460): < 100 nM
IC50 (A549): < 100 nM
SMILES: C[C@@H](Oc1cc(-n2cnc3ccc(CN4CCN(C)CC4)cc32)sc1C(N)=O)c1ccccc1C(F)(F)F [Example 1, 5-{6-[(4-Methylpiperazin-1-yl)methyl]-1H-benzimidazol-1-yl}-3-{(1R)-1-[2-(trifluoromethyl)phenyl]ethoxy}thiophene-2-carboxamide]
sensitivity of glioma cell lines by LGC criteria (glioma cell lines): sensitive (LGC<=30 nM)
IC50 [1]: < 100 nM
IC50 (RKO): < 100 nM
LGC (Last Growth Back Concentration) (SW1088): 10 nM
LGC (Last Growth Back Concentration) (A172): <10 nM
LGC (Last Growth Back Concentration) (SNB-19): 10 nM
LGC (Last Growth Back Concentration) (H4): 10 nM
LGC (Last Growth Back Concentration) (SF-268): 10 nM
LGC (Last Growth Back Concentration) (SF-539): 30 nM
LGC (Last Growth Back Concentration) (SF-295): 10 nM
